Data taken from PubChem BioAssay (NCI).
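The concentration for 50% growth inhibition is given as GI50. Definition used: TGI = concentration required for complete inhibition of growth.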

How the values were obtained:
Experiment in all cases: NCI tumour cell line growth inhibition, 384-well format
HT29 colon = tested on: HT29 colon
NCI-H23 lung = tested on: NCI-H23 lung
KM12 colon = tested on: KM12 colon
SF-539 CNS = tested on: SF-539 CNS
HOP-62 NSCLC = tested on: HOP-62 NSCLC
A549 NSCLC = tested on: A549 NSCLC
A498 renal = tested on: A498 renal
SF-295 CNS = tested on: SF-295 CNS
786-0 renal = tested on: 786-0 renal
PC-3 prostate = tested on: PC-3 prostate
U251 glioblastoma = tested on: U251 glioblastoma
OVCAR-4 ovarian = tested on: OVCAR-4 ovarian
OVCAR-5 ovarian = tested on: OVCAR-5 ovarian
UO-31 renal = tested on: UO-31 renal
MOLT-4 leukemia = tested on: MOLT-4 leukemia
SK-MEL-28 melanoma = tested on: SK-MEL-28 melanoma
UACC-62 melanoma = tested on: UACC-62 melanoma
HCT-15 colon = tested on: HCT-15 colon
OVCAR-8 ovarian = tested on: OVCAR-8 ovarian
HCT-116 colon = tested on: HCT-116 colon
HL-60(TB) leukemia = tested on: HL-60(TB) leukemia
NCI-H226 lung = tested on: NCI-H226 lung
CAKI-1 renal = tested on: CAKI-1 renal
M14 melanoma = tested on: M14 melanoma
SNB-75 CNS = tested on: SNB-75 CNS
HS 578T breast = tested on: HS 578T breast
SK-OV-3 ovarian = tested on: SK-OV-3 ovarian
HCC-2998 colon = tested on: HCC-2998 colon
DU-145 prostate = tested on: DU-145 prostate
NCI-H522 lung = tested on: NCI-H522 lung
LOX IMVI melanoma = tested on: LOX IMVI melanoma
MALME-3M melanoma = tested on: MALME-3M melanoma
EKVX NSCLC = tested on: EKVX NSCLC
MDA-MB-231 breast = tested on: MDA-MB-231 breast
MDA-MB-435 melanoma = tested on: MDA-MB-435 melanoma
MDA-MB-468 breast = tested on: MDA-MB-468 breast
SNB-19 CNS = tested on: SNB-19 CNS
T-47D breast = tested on: T-47D breast
CCRF-CEM leukemia = tested on: CCRF-CEM leukemia
RPMI-8226 leukemia = tested on: RPMI-8226 leukemia
RXF 393 renal = tested on: RXF 393 renal
ACHN renal = tested on: ACHN renal
SN12C renal = tested on: SN12C renal
MCF7 breast = tested on: MCF7 breast
NCI-H460 NSCLC = tested on: NCI-H460 NSCLC
SF-268 CNS = tested on: SF-268 CNS
BT-549 breast = tested on: BT-549 breast
SR leukemia = tested on: SR leukemia
HOP-92 NSCLC = tested on: HOP-92 NSCLC
COLO 205 colon = tested on: COLO 205 colon
NCI-H322M lung = tested on: NCI-H322M lung
OVCAR-3 ovarian = tested on: OVCAR-3 ovarian
IGROV1 ovarian = tested on: IGROV1 ovarian
SW-620 colon = tested on: SW-620 colon
NCI/ADR-RES ovarian = tested on: NCI/ADR-RES ovarian
TK-10 renal = tested on: TK-10 renal
SK-MEL-5 melanoma = tested on: SK-MEL-5 melanoma
UACC-257 melanoma = tested on: UACC-257 melanoma

Cc1cnc(Nc2ccc(OCCN3CCCC3)cc2)nc1Nc1cccc(S(=O)(=O)NC(C)(C)C)c1
GI50 (HT29 colon): 1.42 µM
TGI (HT29 colon): 2.79 µM
GI50 (NCI-H23 lung): 1.45 µM
TGI (NCI-H23 lung): 3.35 µM
GI50 (KM12 colon): 0.418 µM
TGI (KM12 colon): 5.55 µM
GI50 (SF-539 CNS): 1.51 µM
TGI (SF-539 CNS): 2.86 µM
GI50 (HOP-62 NSCLC): 2 µM
TGI (HOP-62 NSCLC): 4.87 µM
GI50 (A549 NSCLC): 1.37 µM
TGI (A549 NSCLC): 2.73 µM
GI50 (A498 renal): 0.909 µM
TGI (A498 renal): 3.09 µM
GI50 (SF-295 CNS): 2.74 µM
TGI (SF-295 CNS): 8.67 µM
GI50 (786-0 renal): 1.27 µM
TGI (786-0 renal): 2.55 µM
GI50 (PC-3 prostate): 1.44 µM
TGI (PC-3 prostate): 8.68 µM
GI50 (U251 glioblastoma): 2.57 µM
TGI (U251 glioblastoma): 12.4 µM
GI50 (OVCAR-4 ovarian): 1.6 µM
TGI (OVCAR-4 ovarian): 3.65 µM
GI50 (OVCAR-5 ovarian): 1.67 µM
TGI (OVCAR-5 ovarian): 5.63 µM
GI50 (UO-31 renal): 1.77 µM
TGI (UO-31 renal): 3.17 µM
GI50 (MOLT-4 leukemia): 0.428 µM
TGI (MOLT-4 leukemia): 1.48 µM
GI50 (SK-MEL-28 melanoma): 3.61 µM
TGI (SK-MEL-28 melanoma): 11.6 µM
GI50 (UACC-62 melanoma): 1 µM
TGI (UACC-62 melanoma): 2.67 µM
GI50 (HCT-15 colon): 1.66 µM
TGI (HCT-15 colon): 4.31 µM
GI50 (OVCAR-8 ovarian): 1.54 µM
TGI (OVCAR-8 ovarian): 2.92 µM
GI50 (HCT-116 colon): 0.635 µM
TGI (HCT-116 colon): 2.07 µM
GI50 (HL-60(TB) leukemia): 0.464 µM
TGI (HL-60(TB) leukemia): 1.34 µM
GI50 (NCI-H226 lung): 0.74 µM
TGI (NCI-H226 lung): 1.94 µM
GI50 (CAKI-1 renal): 0.593 µM
TGI (CAKI-1 renal): 1.71 µM
GI50 (M14 melanoma): 1.02 µM
TGI (M14 melanoma): 2.5 µM
GI50 (SNB-75 CNS): 0.869 µM
TGI (SNB-75 CNS): 2.16 µM
GI50 (HS 578T breast): 0.837 µM
TGI (HS 578T breast): 2.27 µM
GI50 (SK-OV-3 ovarian): 0.604 µM
TGI (SK-OV-3 ovarian): 1.84 µM
GI50 (HCC-2998 colon): 1.39 µM
TGI (HCC-2998 colon): 2.86 µM
GI50 (DU-145 prostate): 1.08 µM
TGI (DU-145 prostate): 2.87 µM
GI50 (NCI-H522 lung): 0.523 µM
TGI (NCI-H522 lung): 1.68 µM
GI50 (LOX IMVI melanoma): 0.815 µM
TGI (LOX IMVI melanoma): 2.05 µM
GI50 (MALME-3M melanoma): 1.45 µM
TGI (MALME-3M melanoma): 3.04 µM
GI50 (EKVX NSCLC): 1.77 µM
TGI (EKVX NSCLC): 3.98 µM
GI50 (MDA-MB-231 breast): 1.06 µM
TGI (MDA-MB-231 breast): 2.35 µM
GI50 (MDA-MB-435 melanoma): 2.61 µM
TGI (MDA-MB-435 melanoma): 11.6 µM
GI50 (MDA-MB-468 breast): 1.2 µM
TGI (MDA-MB-468 breast): 2.64 µM
GI50 (SNB-19 CNS): 2.97 µM
TGI (SNB-19 CNS): 8.89 µM
GI50 (T-47D breast): 1.78 µM
TGI (T-47D breast): 5.21 µM
GI50 (CCRF-CEM leukemia): 1.4 µM
TGI (CCRF-CEM leukemia): 2.75 µM
GI50 (RPMI-8226 leukemia): 0.624 µM
TGI (RPMI-8226 leukemia): 1.78 µM
GI50 (RXF 393 renal): 0.707 µM
TGI (RXF 393 renal): 1.66 µM
GI50 (ACHN renal): 1.3 µM
TGI (ACHN renal): 2.85 µM
GI50 (SN12C renal): 1.54 µM
TGI (SN12C renal): 4.49 µM
GI50 (MCF7 breast): 1.16 µM
TGI (MCF7 breast): 2.68 µM
GI50 (NCI-H460 NSCLC): 1.88 µM
TGI (NCI-H460 NSCLC): 11.7 µM
GI50 (SF-268 CNS): 1.9 µM
TGI (SF-268 CNS): 4.22 µM
GI50 (BT-549 breast): 1.62 µM
TGI (BT-549 breast): 3.01 µM
GI50 (SR leukemia): 0.372 µM
TGI (SR leukemia): 1.36 µM
GI50 (HOP-92 NSCLC): 1.02 µM
TGI (HOP-92 NSCLC): 2.22 µM
GI50 (COLO 205 colon): 1.82 µM
TGI (COLO 205 colon): 3.28 µM
GI50 (NCI-H322M lung): 1.24 µM
TGI (NCI-H322M lung): 7.23 µM
GI50 (OVCAR-3 ovarian): 1.27 µM
TGI (OVCAR-3 ovarian): 4.51 µM
GI50 (IGROV1 ovarian): 1.08 µM
TGI (IGROV1 ovarian): 2.65 µM
GI50 (SW-620 colon): 1.57 µM
TGI (SW-620 colon): 3.64 µM
GI50 (NCI/ADR-RES ovarian): 6.43 µM
TGI (NCI/ADR-RES ovarian): 18.3 µM
GI50 (TK-10 renal): 1.55 µM
TGI (TK-10 renal): 3.19 µM
GI50 (SK-MEL-5 melanoma): 1.32 µM
TGI (SK-MEL-5 melanoma): 2.63 µM
GI50 (UACC-257 melanoma): 1.73 µM
TGI (UACC-257 melanoma): 3.12 µM
